In US11834516B2, “Tumor-specific polypeptide and use thereof” (GENOIMMUNE THERAPEUTICS CO., LTD., priority 2016, dated 2023):

What was measured:
[1] = tested on: H2087-KLMGIVYKV subcutaneous tumor; test: Lentivirus (nucleic acid) transfected DC vaccine in H2087-[…] subcutaneous tumor model; assay type: in vivo, NOD/SCID mice; conditions: lentivirus-infected DC, intradermal, 2 weekly injections
Description: Using automated DNA synthesizer, nucleotide sequences were synthesized by ligating nucleotides one by one based on a known sequence utilizing solid phase phosphite amide method. […] The lentiviral plasmids pHBLV-Puro containing the wild type polypeptide or the mutated polypeptides were separately constructed and named as pHBLV-Puro-[…], pHBLV-Puro-[…], pHBLV-Puro-[…], pHBLV-Puro-[…], pHBLV-Puro-[…], respectively. Thereafter, the five lentiviral plasmids were co-transfected into T293 cells with the pSPAX2 and pMD2G helper plasmids, respectively, and were packaged into lentiviruses containing the wild type polypeptide or the mutated polypeptides.
The established human lung (non-small cell) adenocarcinoma cell line H2087-[…] cells were cultured in DMEM medium supplemented with 10% fetal calf serum, 100 U/mL penicillin and streptomycin in an incubator at 37° C., 5% CO2. […] After appropriate dilution, 40 μl of the cell suspension was stained with 10 μl of 0.4% Trypan Blue and microscopically counted to prepare a tumor cell suspension at a concentration of 1×10^8 cells/ml. […] Using the vernier caliper, the tumor long diameter a and the short diameter b were measured every 2-3 days, and the tumor size was calculated as follows: tumor size=a*b*b/2. […]

[2] = target: T1, HLA-A0201 (Homo sapiens, UniProt P04439, D140Y/D185E/D98H/E176V/E277Q/G131W/G231S/I119V/I121R/I166T/I218V/L300P/L318F/N151K/N90K/P208A/P217A/Q86G/Q94H/R138H/R169H/T345S); test: T2 affinity verification of the polypeptides for HLA-A0201 by flow cytometry; assay type: binding; conditions: T2 affinity test
T1 construct: T2 cell expresses HLA-A0201; host or cells: T2 cells
Experimental: 2 duplicate wells per group were used. […] The cells were collected by centrifugation at 200 g for 5 minutes. After the collected cells were washed twice with PBS (Cat. No. 10010-031, GIBCO), the cells were directly incubated with anti-HLA-A 0201 FITC monoclonal antibody and incubated at 4 C for 30 minutes. The mean fluorescence intensity (MFI) was then detected and analyzed by flow cytometry (BD FACSJazz™) and its software, as shown in FIG. 1.
The fluorescence index (FI) is calculated using the following formula: FI=[Mean Fluorescence Intensity (MFI)sample−MFIbackground]/MFIbackground, wherein the MFIbackground represents the value without the polypeptide.

[3] = tested on: CD8+ T cells; test: Cell expansion of CD8+ T cells stimulated by polypeptide-loaded DCs in vitro; assay type: cell-based, human; conditions: day 10 of co-culture of CD8+ T cells with polypeptide-loaded DCs; 2.5 × 10^6 cells before culture
Experimental: Dendritic cells (DCs) derived from monocytes were used as antigen presenting cells (APCs) to induce CTL responses against peptides presented on HLA. 2×10^8 peripheral blood mononuclear cells (PBMC) were isolated from 100 ml of peripheral blood of healthy volunteers with positive HLA-A0201 subtype using Ficoll lymphocyte separation solution (Cat. No. 17-1440-02, GE Healthcare). Mononuclear cells were obtained by adherent culture (3 hours), and CD8+ T cells in PBMC cells were screened with CD8 magnetic beads. GM-CSF (1000 U/ml) and IL-4 (1000 U/ml) were used to induce adherent monocytes into immature DCs, then IFN-γ (100 U/ml), LPS (10 ng/ml), and the polypeptides of the present invention as set forth in SEQ ID NOs: 2-5 were used to induce adherent cells into mature DC cells. The mature DC cells loaded with the polypeptides were irradiated (dose of 25 Gy) and co-cultured with CD8+ T cells of the volunteers (DC density was 5×10^5 cells/ml, CD8+ T cell density was 2×10^6 cells/ml, both of DCs and CD8+ T cells were mixed in equal volume and added to the well plate, i.e., co-cultured) with IL-21 added, then IL-2 and IL-7 were replenished after 3 days, and then IL-2 and IL-7 were replenished once on day 5 and 7, respectively. Co-cultured cells (co-cultured CD8+ T cells were activated to polypeptide-specific CD8+ T cells) were counted on day 10.

[4] = tested on: CD8+ T cells; test: IFN-γ ELISPOTs, activation of CD8+ T cell immune response; assay type: cell-based, human; conditions: for Number of spots in the mutated polypeptide group / Number of spots in the wild type polypeptide group: CD8+ T cells primed with DCs loaded with the polypeptide, 20 hours; for Number of spots in the mutated polypeptide group: T2 cells loaded with mutated polypeptide; for Number of spots in the wild type polypeptide group: T2 cells loaded with wild type polypeptide KLMGIVNKV; for Conclusion (immunogenicity): IFN-γ ELISPOTs; for Folds (test/wild type): ratio of spot numbers, >2 = immunogenic
Description: The principle of ELISPOTs detection method is that CD8+ T cells can specifically recognize the complex of HLA-A0201 and a polypeptide, and with different polypeptide sequence, the T cell population recognizing the complex of HLA-A0201 and the polypeptide is also different. As T2 cells express HLA-A0201, CD8+ T cells can specifically recognize T2 cells loaded with mutated polypeptides, but cannot recognize T2 cells loaded with wild-type polypeptide. After specifically recognizing the complex of HLA-A0201 and the polypeptide, the polypeptide-specific CD8+ T cells are able to reactivate and secrete IFN-γ. The IFN-γ secreted by activation of CD8+ T cells is captured by a biotin-labeled secondary antibody. It is then bound to alkaline phosphatase or peroxide horseradish oxidase-labeled streptavidin. Spots are formed by the color development of the substrate. The number of spots represents the number of cells that are activated to secrete IFN-γ.
The cells co-cultured in Example 4 and T2 cells loaded with the mutated polypeptides or the wild-type polypeptide were added into human IFN-γ ELISPOTs plates for culture and detection. The spots formed by the ELISPOT test were finally counted. The requirement for the test polypeptide to be immunogenic is as follows: the number of spots (test polypeptide)/the number of spots (wild type polypeptide)>2, that is, the number of spots formed by the test polypeptide is more than twice the number of spots formed by the wild type polypeptide.
The cells co-cultured in Example 4 and T2 cells loaded with the mutated polypeptide […] (SEQ ID NO: 2) and its variable formats (SEQ ID NOs: 2-5) and the wild type polypeptide […] (SEQ ID NO: 6) were added into human IFN-γ ELISPOTs plates for culture, and subjected to ELISPOTs test (Mabtech, Cat. No. 3420-4APW-2) 20 hours later.

[5] = tested on: T2 cells; test: LDH release assay, specific killing activity of CD8+ T cells; assay type: cell-based, human; parameters: concentration or dose not given beside the values; conditions: T cells activated by the labelled polypeptide, 4 hours
Experimental: The following experiment was carried out according to the instructions of Pierce™ LDH Cytotoxicity Assay Kit (Thermo, Cat. No. 88953). The co-cultured cells in Example 4 were co-cultured with T2 cells loaded with mutated polypeptides or wild-type polypeptide or T2 cells without any loaded polypeptides. In the experiment, the maximum release well, the volume correction well, the medium control well, the spontaneous release well, the control of different ratios of effective cells to target cells (the ratio of the number of T cells to the T2 cell) and the like were set, and three duplicate wells were set in each group, and after 4 hours, 50 ul of the supernatant of the co-cultured cells was collected and added to 50 ul of LDH substrate mixture to catalyze the reaction of LDH substrate. After 30 minutes, 50 ul of reaction stop solution was added and read the 490 nm wavelength and the reference wavelength of 680 nm, and the killing activity of target cells against T2 cells were calculated based on the control wells.
The formula for calculating the killing activity is: Killing efficiency (%)=(test well−spontaneous release of effector cell−spontaneous release of target cell+medium well)/(maximum release of target cell−volume correction well−spontaneous release of target cell+medium well)×100%

[6] = target T2 loaded with KLMGIVYKV (SEQ ID NO: 2)
[7] = target T2 loaded with wild type KLMGIVNKV (SEQ ID NO: 6)

Row | Sequence | affinity for HLA-A0201 [2] | tumor suppressing effect [1] | Total number of cells in the well after culture [3] | Number of spots in the mutated polypeptide group [4] | Number of spots in the wild type polypeptide group [4] | Conclusion (immunogenicity) [4] | Folds (test/wild type) [4] | Killing efficiency, ratio of effective cells to target cells (1:1) [5, 6] | Killing efficiency, ratio of effective cells to target cells (10:1) [5, 6] | Killing efficiency, ratio of effective cells to target cells (1:1) [5, 7] | Killing efficiency, ratio of effective cells to target cells (10:1) [5, 7]
1 | KLMGIVNKV [wild-type peptide fragment, amino acids 130-138 of the unmutated Twist neighbor protein] |  | no effect on the tumor |  |  |  |  |  |  |  |  | 
2 | KMMGIVYKL | enhanced affinity for HLA-A0201 |  | 1.46 × 10^7 | 328 | 29 | immunogenic | 11.31 | 8.29% | 42.26% | 3.25% | 6.23%
3 | KMMGIVYKV | enhanced affinity for HLA-A0201 |  | 1.37 × 10^7 | 323 | 37 | immunogenic | 8.73 |  |  |  | 

Further lines, with some results ahead:

Row | affinity for HLA-A0201 [2] | Sequence | tumor suppressing effect [1] | Total number of cells in the well after culture [3] | Number of spots in the mutated polypeptide group [4] | Number of spots in the wild type polypeptide group [4] | Conclusion (immunogenicity) [4] | Folds (test/wild type) [4] | Killing efficiency, ratio of effective cells to target cells (1:1) [5, 6] | Killing efficiency, ratio of effective cells to target cells (10:1) [5, 6] | Killing efficiency, ratio of effective cells to target cells (1:1) [5, 7] | Killing efficiency, ratio of effective cells to target cells (10:1) [5, 7]
4 | enhanced affinity for HLA-A0201 | KLMGIVYKL |  | 1.63 × 10^7 | 335 | 40 | immunogenic | 8.34 | 8.76% | 44.52% | 2.17% | 4.63%
5 | does have a high affinity for HLA-A0201 | KLMGIVYKV [9-amino-acid mutated TWIST Neighbor protein peptide (N136Y)] |  | 1.32 × 10^7 | 316 | 31 | immunogenic | 10.01 | 7.69% | 38.29% | 2.33% | 5.03%
